Test systems include NCI-H522; SR; SNB-78; SK-MEL-2; 786-0; M14; KM12; SK-OV-3; OVCAR-8; NCI-H23; SW-620; SNB-75; ACHN; RXF 393; HCC 2998.
Holding throughout (test): DTP human tumour cell line panel, 48 h

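Assay format: 96-well plates, 48-hour exposure. GI50 is the concentration that inhibits growth by half.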 The source made the active and inactive calls. Rule as the data show it: active = GI50 up to about 1.1 µM and inactive = higher.

Regarding `COc1nc(NC2OCC(OC(C)=O)C(OC(C)=O)C2OC(C)=O)c(-c2csc(N)n2)c(=O)n1C` (centres undefined), the GI50 in the assay with NCI-H522, in the assay with SR, with SNB-78, with SK-MEL-2, with 786-0 and in the assay with M14 was > 100 µM (inactive) throughout. Also, the GI50 with KM12, in the assay on SK-OV-3, in the assay on OVCAR-8, with NCI-H23, in the assay with SW-620 and in the assay on SNB-75 was > 100 µM (inactive) throughout. In addition, in the assay with ACHN, the GI50 (usually the concentration that inhibits growth by half) was > 100 µM (inactive).
Regarding `COc1c(O)c2c3c(cc(C)cc3c1C(C)C)OC2`, the GI50 in the assay with NCI-H522, with SR, in the assay with SNB-78, in the assay with RXF 393, with SK-MEL-2 and with 786-0 was > 100 µM (inactive) each time. The GI50 in the assay with M14, with KM12, with HCC 2998, in the assay on SK-OV-3, with OVCAR-8 and in the assay on NCI-H23 was > 100 µM (inactive) in each case. Besides, the GI50 in the assay with SW-620, in the assay on SNB-75 and in the assay on ACHN was > 100 µM (inactive) in each case.
In the case of `O=C1CC(c2ccccc2)NCN1` (centres undefined), the GI50 in the assay with NCI-H522, in the assay on SR, in the assay with SNB-78, in the assay on RXF 393, in the assay with SK-MEL-2 and in the assay with 786-0 was > 100 µM (inactive) in each case. The GI50 in the assay with M14, in the assay on KM12, with HCC 2998, with SK-OV-3, in the assay on OVCAR-8 and in the assay on NCI-H23 was > 100 µM (inactive) throughout. The GI50 with SW-620, with SNB-75 and in the assay on ACHN was > 100 µM (inactive) throughout.
Regarding `CC1=C(c2cc(C(=O)Nc3ccc(Cl)c(Cl)c3)nc(N)n2)Sc2ccccc2N1`, the GI50 was > 100 µM (inactive) in the assay on NCI-H522; > 100 µM (inactive) in the assay on SR; > 100 µM (inactive) in the assay with SNB-78; 89.7 µM (inactive) in the assay with RXF 393; > 100 µM (inactive) in the assay with SK-MEL-2; > 100 µM (inactive) with 786-0. Moreover, the GI50 in the assay with M14, in the assay on KM12, with HCC 2998, with SK-OV-3, with OVCAR-8 and in the assay with NCI-H23 was > 100 µM (inactive) each time. Moreover, the GI50 in the assay with SW-620, in the assay on SNB-75 and in the assay with ACHN was > 100 µM (inactive) throughout.
For the molecule `CCOC1=C2C(=O)OC(=O)C2C2CCCCC2=C1` (centres undefined), the GI50 with NCI-H522, in the assay with SNB-78, in the assay on RXF 393, in the assay on SK-MEL-2, with 786-0 and in the assay with M14 was > 100 µM (inactive) in each case. Also, the GI50 in the assay with KM12, in the assay on HCC 2998, in the assay on SK-OV-3, with OVCAR-8, in the assay with NCI-H23 and in the assay on SW-620 was > 100 µM (inactive) in each case. Besides, the GI50 in the assay with SNB-75 was > 100 µM (inactive).
With `CC(=O)Oc1c(C)c(-c2ccccc2)c(C)c(-c2ccccc2)c1C(=S)c1ccccc1`, the GI50 in the assay with NCI-H522 was > 100 µM (inactive); in the assay with SR, 41.9 µM (inactive); with SNB-78 it was > 100 µM (inactive); with RXF 393, > 100 µM (inactive); in the assay on SK-MEL-2 it was > 100 µM (inactive); with 786-0 it was > 100 µM (inactive). The GI50 in the assay with M14, in the assay on KM12, in the assay with HCC 2998, in the assay on SK-OV-3, in the assay with OVCAR-8 and in the assay with NCI-H23 was > 100 µM (inactive) in each case. In addition, the GI50 with SNB-75 and in the assay on ACHN was > 100 µM (inactive) each time.
Regarding `CC1=C(O)C(=O)C2C(=O)C1C1Cc3ccccc3C21` (centres undefined), the GI50 with NCI-H522, in the assay with SR, with SNB-78, in the assay with RXF 393, with SK-MEL-2 and with 786-0 was > 100 µM (inactive) throughout. Moreover, the GI50 in the assay on M14, with KM12, in the assay with HCC 2998, with SK-OV-3, in the assay on OVCAR-8 and in the assay with NCI-H23 was > 100 µM (inactive) in each case. The results for the GI50 in the assay on SW-620, in the assay on SNB-75 and in the assay on ACHN were > 100 µM (inactive), 60.5 µM (inactive) and > 100 µM (inactive), respectively.
For `COc1cc2c(c(OC)c1OC)-c1ccc(SC)c(=O)cc1C(CC(=O)Oc1ccc(F)cc1)C2` (centres undefined), the GI50 with NCI-H522 is 0.116 µM (active); in the assay on SR, 0.0466 µM (active); in the assay with SNB-78, 0.142 µM (active); in the assay on RXF 393, 0.0365 µM (active); with SK-MEL-2, 0.23 µM (active); in the assay on 786-0 it was 0.0625 µM (active). Further, the GI50 in the assay with M14 was 0.172 µM (active); in the assay with KM12, 0.158 µM (active); with HCC 2998 it was 0.121 µM (active); in the assay with SK-OV-3, 0.028 µM (active); in the assay on OVCAR-8 it was 0.333 µM (active); with NCI-H23, 0.215 µM (active). The GI50 with SW-620 is 0.0918 µM (active); in the assay with SNB-75 it was 0.234 µM (active); with ACHN, 0.18 µM (active).
`O=C(O)c1c(-c2cccc3ccccc23)sc(-c2cccc3ccccc23)c1C(=O)O`: the GI50 in the assay with NCI-H522 is 74.8 µM (inactive); in the assay with SR, 47.9 µM (inactive); in the assay with SNB-78, > 100 µM (inactive); in the assay with RXF 393 it was > 100 µM (inactive); in the assay on SK-MEL-2, 35.9 µM (inactive); with 786-0 it was > 100 µM (inactive). The GI50 in the assay with M14 was > 100 µM (inactive); in the assay with KM12, 36.6 µM (inactive); in the assay on HCC 2998, > 100 µM (inactive); in the assay on SK-OV-3, > 100 µM (inactive); with OVCAR-8, > 100 µM (inactive); with NCI-H23 it was > 100 µM (inactive). The GI50 with SW-620, in the assay on SNB-75 and in the assay with ACHN was > 100 µM (inactive) in each case.
With `COc1cc2c(cc1OC)[Se]c1cc(OC)c(OC)cc1[Se]2`, the GI50 was 8.75 µM (inactive) in the assay with NCI-H522; 4.74 µM (inactive) with SR; > 10 µM (inactive) with SNB-78; 15.1 µM (inactive) in the assay with RXF 393; > 10 µM (inactive) in the assay on SK-MEL-2; > 10 µM (inactive) in the assay with 786-0. Besides, the GI50 with M14 was > 10 µM (inactive); in the assay on KM12, 6.15 µM (inactive); in the assay with SK-OV-3, > 10 µM (inactive); in the assay on OVCAR-8 it was > 10 µM (inactive); in the assay on NCI-H23, > 10 µM (inactive); in the assay on SW-620, > 10 µM (inactive). Besides, the GI50 in the assay with SNB-75 was 6.84 µM (inactive); in the assay on ACHN, > 10 µM (inactive).
Take `O=C(O)c1c2c(c(C(=O)O)c3ccccc13)-c1ccccc1-2`: the GI50 is 35.2 µM (inactive) in the assay with NCI-H522; 55.6 µM (inactive) with SR; 71.1 µM (inactive) in the assay on SNB-78; 21.9 µM (inactive) in the assay with RXF 393; 33.3 µM (inactive) with SK-MEL-2; 36.8 µM (inactive) in the assay with 786-0. The GI50 in the assay with M14 was 47.5 µM (inactive); in the assay with KM12 it was 38.4 µM (inactive); in the assay with HCC 2998, 37.1 µM (inactive); with SK-OV-3, 27.8 µM (inactive); with OVCAR-8, 39.9 µM (inactive); in the assay on NCI-H23, 39.8 µM (inactive). For the same molecule, the GI50 in the assay on SW-620 is 36.8 µM (inactive); in the assay on SNB-75, 36.7 µM (inactive); in the assay with ACHN it was 30.8 µM (inactive).
For `CC1=CC(=O)c2c(C=O)c(O)c(O)c(C(C)C)c2C1=O`, the GI50 with NCI-H522 is 12.4 µM (inactive); in the assay with SR, 22.8 µM (inactive); in the assay on SNB-78, 45.9 µM (inactive); in the assay on RXF 393, 14 µM (inactive); with SK-MEL-2, 23.3 µM (inactive); in the assay on 786-0, 19.8 µM (inactive). Further, the GI50 in the assay with M14 is 31.3 µM (inactive); with HCC 2998, 29.3 µM (inactive); with SK-OV-3 it was 34.5 µM (inactive); with NCI-H23, 28.8 µM (inactive); in the assay on SNB-75, 40.7 µM (inactive); in the assay on ACHN, 16.8 µM (inactive).
In the case of `O=[N+]([O-])[C@@H]1C2C=CC(C2)[C@H]1Cl` (some centres undefined), the GI50 with NCI-H522, in the assay on SR, in the assay with SNB-78, in the assay on RXF 393, in the assay with SK-MEL-2 and in the assay with 786-0 was > 100 µM (inactive) throughout. Besides, the GI50 in the assay with M14, in the assay with KM12, in the assay on SK-OV-3, in the assay on OVCAR-8, in the assay on NCI-H23 and in the assay on SW-620 was > 100 µM (inactive) throughout. Also, the GI50 in the assay on SNB-75 and in the assay on ACHN was > 100 µM (inactive) in each case.
With `O=C(CSc1nnc[nH]1)C[P+](c1ccccc1)(c1ccccc1)c1ccccc1`, the GI50 was 4.25 µM (inactive) in the assay on NCI-H522; > 100 µM (inactive) in the assay on SNB-78; 61.4 µM (inactive) in the assay with RXF 393; > 100 µM (inactive) with SK-MEL-2; > 100 µM (inactive) in the assay with 786-0; > 100 µM (inactive) in the assay on M14. In addition, the GI50 with KM12, with HCC 2998, in the assay on SK-OV-3, in the assay with OVCAR-8, in the assay on NCI-H23 and in the assay on SW-620 was > 100 µM (inactive) throughout. For the same molecule, the values for the GI50 with SNB-75 and with ACHN were 27.4 µM (inactive) and > 100 µM (inactive), respectively.

The values above are taken from ChEMBL document CHEMBL1201862, “PubChem BioAssay data set” (2004).
